Laboratory results from patent US12172992B2, “Pyrimidines for degrading Bruton's tyrosine kinase” (AbbVie Inc., priority 2022, dated 2024).

target: BTK protein in human whole blood (Homo sapiens (Human), UniProt Q06187); experiment: Btk protein in human whole blood MSD ELISA based assay (BTK degradation); assay type: cell-based; conditions: 6 hours, maximum BTK degradation compared to DMSO only treated samples, read-out: hWB BTK dMax (%)
Experimental: Btk protein degradation was tested using an Meso Scale Discovery-ELISA system (MSD-ELISA): (1) Test compounds were added to human whole blood; (2) human whole blood cells treated with test compounds were lysed; (3) lysed cells were treated with capture antibody, an antibody to Btk; (4) lysed cells were treated with […] to Btk; and (5) lysed cells were treated with anti-mouse antibody (tagged).
Specifically, about 80 μl of fresh human whole blood from healthy donors was transferred into each well of a 96-well V-bottom plate (Costar, Cat No. 3894). Using a TECAN™ D300e Digital Dispenser (Tecan)), 1:4 serially diluted compounds [(8 pt assay) in DMSO solution (final 0.2%) starting at 3 μM top concentration], were added in duplicate. Thereafter, plates were placed in a 37° C. incubator and incubated for 6 hours.
At the end of incubation, 80 μl of 2×CST lysis buffer (Cell Signaling Technology, Cat No. 9803), prepared from a 10× stock solution, was added per well to lyse the blood. Plates were then sealed with a plate sealer and the samples were frozen overnight at −80° C.
Total amount of BTK protein remaining in the blood samples after compound treatment was measured using MSD-ELISA. After thawing the frozen plates, blood lysates were mixed thoroughly and transferred to small spot high-bind MSD plates (Meso Scale Discovery, Cat No. L45XB-3) and coated with capturing antibody, rabbit anti-human BTK (D3H5) (Cell Signaling Technology, Cat No. 8547CF). Thereafter, primary detection antibody, mouse anti-human BTK monoclonal antibody, (BD Biosciences, Cat No. 611117) and secondary detection antibody, anti-mouse SULFO-TAG (Meso Scale Discovery, Cat No. R32AC-1) were added. The assay plates were read on an MSD S600 plate reader by the addition of 2×MSD read buffer (Meso Scale Discovery, R92TC-1). All reagent transfers, including blood lysis, was conducted using a Biomed i7 liquid handler. From the dose response curves, DC50 values were calculated by averaging data from duplicate experiments. and Curve fitting was done by non-linear regression using GraphPad Prism. The DC50 values are reported in Table 2 in the hWB BTK DC50 (nM) column The Dmax values represent the maximum amount of BTK degradation observed upon compound treatment compared to DMSO only treated samples. The dMax (%) values are reported in Table 2 in the hWB BTK dMax (%) column.

Sequence of BTK protein in human whole blood (Q06187 whole entry): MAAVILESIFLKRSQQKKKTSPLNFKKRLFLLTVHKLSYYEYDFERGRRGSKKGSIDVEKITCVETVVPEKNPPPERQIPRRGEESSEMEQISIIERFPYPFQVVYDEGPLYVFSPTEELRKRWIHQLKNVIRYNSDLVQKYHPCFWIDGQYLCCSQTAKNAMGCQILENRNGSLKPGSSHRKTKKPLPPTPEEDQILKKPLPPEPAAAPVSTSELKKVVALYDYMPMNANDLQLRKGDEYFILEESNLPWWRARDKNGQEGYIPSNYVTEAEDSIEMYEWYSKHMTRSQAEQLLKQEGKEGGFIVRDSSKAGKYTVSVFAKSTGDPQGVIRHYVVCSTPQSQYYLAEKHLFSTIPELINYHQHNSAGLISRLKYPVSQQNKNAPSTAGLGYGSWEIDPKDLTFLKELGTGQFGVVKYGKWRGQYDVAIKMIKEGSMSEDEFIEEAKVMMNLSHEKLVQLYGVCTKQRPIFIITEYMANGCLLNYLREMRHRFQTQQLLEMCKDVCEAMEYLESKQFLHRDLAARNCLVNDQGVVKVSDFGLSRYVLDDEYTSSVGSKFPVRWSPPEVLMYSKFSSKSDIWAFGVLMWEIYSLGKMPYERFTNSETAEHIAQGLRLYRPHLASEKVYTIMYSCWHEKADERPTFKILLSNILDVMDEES

Compound | Dmax
COC[C@H]1CN(CCc2ccc(N3CCC(=O)NC3=O)cc2)CCN1c1ccc(Nc2cc(-c3ccc([C@@H](C)NC(=O)c4nc(C(C)(C)C)no4)c(C)c3)ncn2)nc1 [Example 15, 3-tert-butyl-N-[(1R)-1-{4-[6-({5-[(2R)-4-{2-[4-(2,4-dioxo-1,3-diazinan-1-yl)phenyl]ethyl}-2-(methoxymethyl)piperazin-1-yl]pyridin-2-yl}amino)pyrimidin-4-yl]-2-methylphenyl}ethyl]-1,2,4-oxadiazole-5-carboxamide] | 99.9%
C[C@@H](NC(=O)c1nc(C(C)(C)C)no1)c1ccc(-c2cc(Nc3ccc(N4CCN(CCc5ccc(N6CCC(=O)NC6=O)cc5)C[C@@H]4C)cn3)ncn2)cc1C(F)(F)F [Example 16, 3-tert-butyl-N-[(1R)-1-{4-[6-({5-[(2S)-4-{2-[4-(2,4-dioxo-1,3-diazinan-1-yl)phenyl]ethyl}-2-methylpiperazin-1-yl]pyridin-2-yl}amino)pyrimidin-4-yl]-2-(trifluoromethyl)phenyl}ethyl]-1,2,4-oxadiazole-5-carboxamide] | 100%
C[C@@H](NC(=O)c1nc(C(C)(C)C)no1)c1ccc(-c2cc(Nc3ccc(N4CCN(CCc5ccc(N6CCC(=O)NC6=O)cc5)C[C@@H]4C)cn3)ncn2)cc1F [Example 17, 3-tert-butyl-N-[(1R)-1-{4-[6-({5-[(2S)-4-{2-[4-(2,4-dioxo-1,3-diazinan-1-yl)phenyl]ethyl}-2-methylpiperazin-1-yl]pyridin-2-yl}amino)pyrimidin-4-yl]-2-fluorophenyl}ethyl]-1,2,4-oxadiazole-5-carboxamide] | 99.6%
